This note sets out measurements from ChEMBL document CHEMBL4312025, “Synthesis, antiproliferative activity and DNA/RNA-binding properties of mono- and bis-(1,2,3-triazolyl)-appended benzimidazo[1,2-a]quinoline derivatives” (Eur J Med Chem, 2020).

The structures appear in SMILES notation. Active and inactive are the calls of the source. The rule behind the calls is not given here.

The term ΔTm denotes the change in melting temperature against a reference sample. As usually defined, the GI50 is the concentration giving 50% growth inhibition. Higher therefore signals lower sensitivity of the cells.

The test system of series [1] is Calf thymus DNA. The experiment in a line: Binding affinity to calf thymus ds-DNA assessed as decrease in emission intensity of the compound in sodium cacodylate buffer at pH 7 at 1X10'-6 mol/dm3 by fluorescence spectroscopy. The class given is nucleic-acid assay. The settings on record: Bos taurus.
Series [2] is described as follows: Solubility of the compound in 0.05 M sodium cacodylate buffer with <0.01% DMSO upto 1X10'-5 mol/dm3 by UV/Visible spectra analysis. The class given is physicochemical.
For series [3], the system named is HCT-116. As to the kind of experiment: Cell cycle arrest in human HCT116 cells at 0.5 to 1 uM incubated for 24 and 48 hrs by propidium iodide staining based flow cytometry. The class given is functional. A general note: In flow cytometry, cells or beads pass a laser one at a time.
For series [4], the system named is Poly(dA-dU)oligonucleotide. The experiment in a line: Binding affinity to polyA-polyU dsRNA (unknown origin) assessed as change in melting temperature in sodium cacodylate buffer at pH 7 at compound:polynucleotide concentration ratio of 0.2 by thermal denaturation assay. The class given is nucleic-acid assay.
Series [5] has as its system Calf thymus DNA. The experiment in a line: Binding affinity to calf thymus dsDNA assessed as intercalating activity by measuring weak negative ICD band between 300 and 330 nm in sodium cacodylate buffer at pH 7 at compound:polynucleotide concentration ratio of 0.1 to 0.3 by CD spectroscopy. The class given is nucleic-acid assay. The note with it: Bos taurus.
The test system of series [6] is Calf thymus DNA. As to the kind of experiment: Binding affinity to calf thymus dsDNA assessed as ratio for fluorescence intensity of compound to fluorescence intensity for compound-polynucleotide complex in sodium cacodylate buffer at pH 7 by fluorescence spectroscopy based Scatchard method. The class given is nucleic-acid assay. The note with it: Bos taurus.
In series [7] the test system is Poly(dA-dU)oligonucleotide. The experiment in a line: Binding affinity to polyA-polyU dsRNA (unknown origin) assessed as intercalating activity by measuring decrease in CD spectra of polynucleotides in sodium cacodylate buffer at pH 7 at compound:polynucleotide concentration ratio of 0.1 to 0.4 by CD spectroscopy. The class given is nucleic-acid assay.
Series [8] concerns Poly(dA-dU)oligonucleotide. As to the kind of experiment: Binding affinity to polyA-polyU dsRNA (unknown origin) assessed as decrease in emission intensity of the compound in sodium cacodylate buffer at pH 7 at 1X10'-6 mol/dm3 by fluorescence spectroscopy. The class given is nucleic-acid assay.
A short description of series [9]: Drug uptake in cytoplasm of human H460 cells assessed as perinuclear reticular staining at 1 uM incubated for 15 mins by fluorescence microscopy. The class given is ADME, cell-based. The settings on record: nci-h460, 0.25 h.
The test system of series [10] is Calf thymus DNA. As to the kind of experiment: Binding affinity to calf thymus dsDNA assessed as ratio for bound compound to polynucleotide in sodium cacodylate buffer at pH 7 by fluorescence spectroscopy based Scatchard analysis. The settings on record: Bos taurus. The class given is nucleic-acid assay.
A short description of series [11]: Drug uptake in nucleus of human H460 cells at 1 uM incubated for 15 mins by fluorescence microscopy. The class given is ADME, cell-based. The settings on record: nci-h460, 0.25 h.
The subject of series [12] is Calf thymus DNA. The experiment in a line: Binding affinity to calf thymus dsDNA assessed as binding constant in sodium cacodylate buffer at pH 7 by fluorescence spectroscopy. The class given is nucleic-acid assay. The note with it: Bos taurus.
In series [13] the test system is HCT-116. The experiment in a line: Cytotoxicity against human HCT116 cells assessed as induction of massive cell death at 5 uM incubated for 24 to 48 hrs. The class given is functional, cell-based.
For series [14], the system named is Calf thymus DNA. The experiment in a line: Binding affinity to calf thymus dsDNA assessed as change in melting temperature in sodium cacodylate buffer at pH 7 at compound:polynucleotide concentration ratio of 0.2 by thermal denaturation assay. The class given is nucleic-acid assay. The note with it: Bos taurus.
The test system of a further series is NCI-H460. As to the kind of experiment: Growth inhibition of human H460 cells incubated for 72 hrs by MTT assay. The class given is functional. The settings on record: NCI-H460, 72 h.
Series [15] relates to Calf thymus DNA. The experiment in a line: Binding affinity to calf thymus dsDNA assessed as intercalating activity by measuring decrease in CD spectra of polynucleotides in sodium cacodylate buffer at pH 7 at compound:polynucleotide concentration ratio of 0.1 to 0.3 by CD spectroscopy. The class given is nucleic-acid assay. The settings on record: Bos taurus.
Series [16] relates to HCT-116. As to the kind of experiment: Growth inhibition of human HCT116 cells incubated for 72 hrs by MTT assay. The class given is functional. The settings on record: HCT-116, 72 h. In general terms: Tetrazolium assays rely on reduction of a dye to a coloured formazan, in cell work by metabolically active cells.
A short description of series [17]: Growth inhibition of human HaCaT cells incubated for 72 hrs by MTT assay. The class given is cell-based.
Series [18] has as its system Calf thymus DNA. The experiment in a line: Binding affinity to calf thymus dsDNA assessed as stabilization of mixed DNA base pairs in sodium cacodylate buffer at pH 7 at compound:polynucleotide concentration ratio of 0.2 by thermal denaturation assay. The class given is nucleic-acid assay. The settings on record: Bos taurus.
In the next series the test system is MCF7. The experiment in a line: Growth inhibition of human MCF7 cells incubated for 72 hrs by MTT assay. The settings on record: MCF7, 72 h. The class given is functional.
Series [19] in a line: Drug uptake in nucleus of human H460 cells at 10 uM incubated for 15 mins by fluorescence microscopy. The class given is ADME, cell-based. The settings on record: nci-h460, 0.25 h.
Series [20] concerns Poly(dA-dU)oligonucleotide. As to the kind of experiment: Binding affinity to polyA-polyU dsRNA (unknown origin) assessed as biphasic thermal denaturation transitions in sodium cacodylate buffer at pH 7 at compound:polynucleotide concentration ratio of 0.1 by thermal denaturation assay. The class given is nucleic-acid assay.
The test system of series [21] is Poly(dA-dU)oligonucleotide. The experiment in a line: Binding affinity to polyA-polyU dsRNA (unknown origin) assessed as ratio for fluorescence intensity of compound to fluorescence intensity for compound-polynucleotide complex in sodium cacodylate buffer at pH 7 by fluorescence spectroscopy based Scatchard method. The class given is nucleic-acid assay.
Series [22] relates to Poly(dA-dU)oligonucleotide. The experiment in a line: Binding affinity to polyA-polyU dsRNA (unknown origin) assessed as biphasic thermal denaturation transitions in sodium cacodylate buffer at pH 7 at compound:polynucleotide concentration ratio of 0.2 by thermal denaturation assay. The class given is nucleic-acid assay.
In series [23] the test system is Poly(dA-dU)oligonucleotide. As to the kind of experiment: Binding affinity to polyA-polyU dsRNA (unknown origin) assessed as ratio for bound compound to polynucleotide in sodium cacodylate buffer at pH 7 by fluorescence spectroscopy based Scatchard method. The class given is nucleic-acid assay.
The subject of series [24] is Poly(dA-dU)oligonucleotide. As to the kind of experiment: Binding affinity to polyA-polyU dsRNA (unknown origin) assessed as stabilization of polynucleotide in sodium cacodylate buffer at pH 7 at compound:polynucleotide concentration ratio of 0.1 to 0.2 by thermal denaturation assay. The class given is nucleic-acid assay.
The subject of series [25] is Poly(dA-dU)oligonucleotide. The experiment in a line: Binding affinity to polyA-polyU dsRNA (unknown origin) assessed as binding constant in sodium cacodylate buffer at pH 7 by fluorescence spectroscopy. The class given is nucleic-acid assay.
The nature of series [26]: Drug uptake in cytoplasm of human H460 cells assessed as perinuclear reticular staining at 10 uM incubated for 15 mins by fluorescence microscopy. The settings on record: nci-h460, 0.25 h. The class given is ADME, cell-based.
Series [27] can be described thus: Selectivity index, ratio of GI50 for human HaCaT cells to GI50 for human HCT116 cells incubated for 72 hrs by MTT assay. The note with it: HaCaT cells and HCT116 cells, read-out: RatioGI50. The class given is toxicity.

Turning to `N#Cc1c(-n2cc(CCO)nn2)c2ccc(F)cc2n2c1nc1ccccc12`, the result (in the series with Calf thymus DNA [1]; with HCT-116 [3]; in the series with Calf thymus DNA [5]; in series [7]; in [8]; with HCT-116 [13]) was Active. Also, the result in the series on Calf thymus DNA [15] and in the series on Calf thymus DNA [18] was Active. For the same compound, in [2], the solubility entry is on record as “Soluble”. Moreover, the ΔTm in series [4] was 0 °C; with Calf thymus DNA [14] it was 1.3 °C. In addition, the Ratio in the series on Calf thymus DNA [6] stood at 0.5; with Calf thymus DNA [10], 0.08. Also, the results for the Drug uptake entry in series [9] and in series [11] were “Active” and “Not Active”, respectively. Besides, in the series with Calf thymus DNA [12], the log Ks stood at 5. The GI50 in the series on NCI-H460 was 1000 nM; in the series on HCT-116 [16], 600 nM; in the series with MCF7, 2000 nM. Also, the concentration for 50% growth inhibition (GI50) at 72 h in series [17] was 730 nM.

As to `N#Cc1c(-n2cc(CCCCl)nn2)c2ccccc2n2c1nc1ccccc12`, the Drug uptake result in series [19] is on record as “Not Active”; in series [26], “Active”. Further, the result (in the series on Calf thymus DNA [1]; with Calf thymus DNA [5]; in [7]; in [8]; in [24]; with Calf thymus DNA [15]) was Active. The outcome with Calf thymus DNA [18] was Active. For the same compound, the ΔTm in [20] is 0.2 to 17 °C; in series [22], 0.4 to 25.3 °C; with Calf thymus DNA [14], 1.2 °C. Besides, in [2], the solubility entry is recorded as “Soluble”. The Ratio in [21] came out at 0.2; with Calf thymus DNA [6] it was 0.3; in the series on Calf thymus DNA [10] it was 0.4; in series [23], 0.3. Further, the log Ks is 6.1 in the series on Calf thymus DNA [12] and 6 in series [25]. Also, the GI50 with NCI-H460 was 2000 nM; with HCT-116 [16], 1000 nM; in the series on MCF7, 1500 nM. Also, the GI50 at 72 h in series [17] was 1000 nM.

Turning to `N#Cc1c(-n2cc(CCCCl)nn2)c2ccc(-n3cc(CCCCl)nn3)cc2n2c1nc1ccccc12`, the result (in the series on Calf thymus DNA [1]; with Calf thymus DNA [5]; in series [7]; in series [8]; in the series with Calf thymus DNA [15]; in the series on Calf thymus DNA [18]) was Active. In series [2], the solubility entry was “Soluble”. Besides, the shift in melting temperature (ΔTm) in [4] turned out to be 0 °C; in the series with Calf thymus DNA [14], 1.5 °C. Moreover, the figures for the Ratio in the series with Calf thymus DNA [6] and in the series on Calf thymus DNA [10] were 0.8 and 0.1, respectively. The Drug uptake entry is recorded as “Active” in series [9] and “Not Active” in series [11]. Also, the log Ks in the series with Calf thymus DNA [12] was found to be 5.4. In addition, the GI50 in the series with NCI-H460 came out at 3000 nM; in the series on HCT-116 [16], 2500 nM; in the series on MCF7, 6900 nM. The compound further registered a GI50 at 72 h in series [17] of 3200 nM.

Regarding `N#Cc1c(-n2cc(CCCCl)nn2)c2ccc(F)cc2n2c1nc1ccccc12`, the outcome (in the series with Calf thymus DNA [1]; in the series on HCT-116 [3]; in the series with Calf thymus DNA [5]; in series [7]; in series [8]; in the series with HCT-116 [13]) was Active. Besides, the result (in series [24]; with Calf thymus DNA [15]) was Active. In addition, the results for the ΔTm (in series [20]; in series [22]; in the series with Calf thymus DNA [14]) were 0.7 to 16.6 °C, 0.7 to 20.7 °C and 0.5 °C, respectively. In series [2], the solubility result is “Soluble”. The Ratio amounted to 0.4 in [21], 0.5 in the series with Calf thymus DNA [6], 0.1 in the series on Calf thymus DNA [10] and 0.1 in [23]. Moreover, the Drug uptake result in series [9] is recorded as “Active”; in [11], “Not Active”. For the same compound, in series [27], the selectivity ratio at 72 h was above 7. Also, the log Ks in the series with Calf thymus DNA [12] turned out to be 5.2; in series [25], 5.9. Further, the concentration for 50% growth inhibition (GI50) was 700 nM in the series on NCI-H460, 500 nM in the series with HCT-116 [16] and 2000 nM in the series with MCF7. For the same compound, the concentration for 50% growth inhibition (GI50) at 72 h in series [17] was 3500 nM. Moreover, the outcome with Calf thymus DNA [18] was inactive.
